Where two headings read alike, the source gives them in different places.
Legend:
[1] = system: BT‐20 (breast carcinoma); test: Resazurin cell viability assay, BT‐20; format: cell-based; conditions: Homo sapiens, BT-20; for inhibition at 50 µM: read-out: % Cellular growth inhibition (at 50 µM) BT‐20
In short: (§1)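 Cells in DMEM/10% FBS, 1 × 10^3 per well, adhered overnight, then treated with compounds (0–50 µM) for 72 h. Viability read as fluorescence (ex 530, em 590 nm) after 4 h with 44 µM resazurin. % growth inhibition at 50 µM and IC50 by nonlinear regression, triplicates.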

[2] = system: OHMF (non‐tumoral oral fibroblast); test: Resazurin cell viability assay, OHMF fibroblasts; format: cell-based; conditions: Homo sapiens, 72 h, n = 3
Method: (§2) The tongue squamous cell carcinoma cell line CAL‐27 (ATCC CRL‐2095), breast carcinoma BT‐20 (ATCC HTB‐19), gastric carcinoma HGC‐27 (BCRJ Code 0310), and normal oral fibroblast OHMF (culture of fibroblasts derived from human oral healthy mucosa, approved by the Research Ethics Committee of the University of São Paulo, Campus of Ribeirão Preto, Brazil (with protocol number 049) were cultured in DMEM medium (DMEM, Sigma‐Aldrich, St. Louis, MO, USA) supplemented with 10% fetal bovine serum and a solution of penicillin (100 U/mL) and streptomycin (100 μg/mL). The cultures were maintained in a humidified incubator with 5% CO₂ at 37°C.
(§3) Cell viability was analyzed using the resazurin assay. For this, cells were seeded in 96‐well plates (1 × 10^3 cells per well) and incubated at 37°C with 5% CO₂ overnight for cell adhesion. Subsequently, the cells were treated with different compounds (0–50 µM) for 72 h. After treatment, the medium was replaced with phenol‐free DMEM medium (Sigma‐Aldrich) containing resazurin at a concentration of 44 µM (Sigma‐Aldrich). After incubation for 4 h at 37°C, fluorescence detection was performed (excitation 530/25 nm, emission 590/35 nm) using a microplate fluorimeter (Synergy 2, Biotek). Initial cell growth inhibition assays were performed in triplicate or quadruplicate, while IC50 determinations were conducted in triplicate. Data were plotted, and IC₅₀ values were determined by nonlinear regression using GraphPad Prism software 9.0.

[3] = system: HGC‐27 (gastric carcinoma); test: Resazurin cell viability assay, HGC‐27; format: cell-based; conditions: for inhibition at 50 µM / IC50: Homo sapiens, HGC-27; for inhibition at 50 µM: read-out: % Cellular growth inhibition (at 50 µM) HGC‐27; for decrease in IC50 relative to 7f (HIT): HGC‐27
In short: as §1

[4] = system: GNP15; test: Resazurin cellular growth inhibition, GNP15; format: cell-based; conditions: 72 hours, triplicate; read-out: IC50 (nM, Cellular growth inhibition) GNP15 (supplement)
Method: ^b IC50 values were determined using the same resazurin-based assay, with fluorescence measurements performed after 72 hours of treatment. These experiments were carried out in triplicate.

[5] = system: CAL‐27 (oral carcinoma); test: Resazurin cell viability assay, CAL‐27; format: cell-based; conditions: Homo sapiens, CAL-27; for inhibition at 50 µM: read-out: % Cellular growth inhibition (at 50 µM) CAL‐27
In short: as §1

[6] = system: CAL‐27, BT‐20 and HGC‐27 cancer cell lines; test: Resazurin antiproliferative screening, cancer cell line panel; format: cell-based; conditions: for level of inhibition in the 50 µM screening: 70% inhibition threshold; for IC50: range over CAL‐27, BT‐20, HGC‐27, read-out: IC50 values across cancer cell lines
Method: as §2, §3

[7] = system: BT‐20 breast cancer cells; test: Cell‐cycle assay by flow cytometry; format: cell-based; conditions: 2.5 µM, 24 h
Method: BT‐20 cells were seeded in 10 cm plates (1.5 × 10⁶ cells/plate) and incubated at 37°C with 5% CO₂ for 24 h. Subsequently, the cells were treated with different compounds at a concentration of 2.5 µM for 24 h. After treatment, the cells were collected by centrifugation and fixed in cold 70% ethanol for 1 h at 4°C. The cells were then washed, collected by centrifugation, and treated with RNase A (100 μg/mL, Sigma‐Aldrich) for 30 min at 37°C, followed by staining with propidium iodide (50 μg/mL) for 15 min at 37°C. Finally, the percentages of cells in each phase of the cell cycle were determined using FACSCalibur flow cytometry (BD Biosciences—San Jose, CA, USA). Cell‐cycle distribution was analyzed using ModFit LT V3.3 software.

[8] = system: BT‐20 breast cancer cells; test: Western blot of cell‐cycle, apoptosis and signaling proteins; format: cell-based; conditions: 2.5 µM for 24 h
Method: Cells were seeded in 10 cm plates (1.5 × 10⁶ cells/plate) and incubated for 24 h. Subsequently, the cells were treated with the compounds at a concentration of 2.5 µM for 24 h. After treatment, the cells were collected, and the proteins were isolated. A total of 30 µg of proteins were separated electrophoretically on a sodium dodecyl sulfate‐polyacrylamide gel (SDS‐PAGE) and transferred onto a polyvinylidene fluoride (PVDF) membrane (GE Healthcare) using the PowerBlotter Station (Invitrogen) according to the manufacturer's recommendations. After transfer, the membrane was blocked with a 5% (w/v) nonfat milk solution in TBS‐T (0.1 M Tris (pH 7.5), 0.9% NaCl, 0.1% Tween‐20) at room temperature for 1 h under gentle agitation. The membrane was then washed with TBS‐T and incubated with primary antibodies under agitation for approximately 16 h at 4°C. The primary antibodies used were: c‐Myc (#5605), ß‐tubulin (#2128), p21 (#2947), Cyclin D1 (#2978), Bcl‐2 (#15071), p‐AKT ser473 (#4058), and GAPDH (#2118) (Cell Signaling Technology). After primary antibody incubation, the membranes were washed with TBS‐T and incubated at room temperature for 1 h in a TBS‐T solution containing 5% nonfat milk and the HRP‐conjugated secondary antibody. Following the washes with TBS‐T, the membranes were incubated with the SuperSignal West Dura substrate (Thermo Scientific). Immunodetection was analyzed using the ChemiDoc imaging system (Bio‐Rad).

[9] = system: tubulin; test: Tubulin polymerization (inhibition) assay kit; format: biochemical; conditions: for effect on tubulin polymerization curves (RFU): compounds 5 µM, vs control and paclitaxel; for IC50: n = 2
Method: To evaluate the effect of the compounds on tubulin polymerization, the Tubulin Polymerization Assay Kit (Cytoskeleton Inc.) was used according to the manufacturer's instructions. Briefly, 5 µL of the compounds (final concentration ranging from 0.1 to 100 µM) were pipetted per well into a pre‐warmed 96‐well black‐bottom plate at 37°C. After 1 min, 55 µL of the tubulin reaction mix (1X Buffer 1, 0.7X Tubulin Glycerol Buffer, 1 mM GTP, and 2 mg/mL tubulin) was added to each well. Next, after 5 s of shaking, fluorescence detection (excitation: 340–360 nm, emission: 410–460 nm) was performed using a microplate fluorimeter. […] Data were plotted, and IC₅₀ values were determined by nonlinear regression using GraphPad Prism software 9.0.
^c Tubulin polymerization was evaluated using a commercial assay kit, following standard procedures. Compounds were incubated with tubulin, and fluorescence was measured over time to generate kinetic curves and determine the maximum polymerization rate (Vmax). These experiments were carried out in duplicate.

[10] = 72 h, mean ± SD, n = 3, read-out: IC50 (nM) BT‐20
[11] = 72 hours, triplicate, read-out: IC50 (nM, Cellular growth inhibition) BT-20 (supplement)
[12] = 72 h, mean ± SD, n = 3, read-out: IC50 (nM) HGC‐27
[13] = 72 hours, triplicate, read-out: IC50 (nM, Cellular growth inhibition) HGC-27 (supplement)
[14] = 72 h, mean ± SD, n = 3, read-out: IC50 (nM) CAL‐27
[15] = 72 hours, triplicate, read-out: IC50 (nM, Cellular growth inhibition) CAL-27 (supplement)

Row | SMILES | IC50 [1, 10] | IC50 [1, 11] | IC50 [3, 12] | IC50 [3, 13] | IC50 [5, 14] | IC50 [5, 15] | inhibition at 50 µM ([1]; 72 h, mean ± SD, n = 3) | IC50 [2] | inhibition at 50 µM ([3]; 72 h, mean ± SD, n = 3) | IC50 [4] | inhibition at 50 µM ([5]; 72 h, mean ± SD, n = 3) | level of inhibition in the 50 µM screening [6] | cell‐cycle distribution [7] | Bcl‐2 levels [8] | cyclin D1 levels [8] | p21 expression [8] | decrease in IC50 relative to 7f (HIT) [3] | IC50 [6] | effect on tubulin polymerization curves (RFU) [9] | IC50 [9]
1 | COc1ccc2c(C(=O)c3ccc(Cl)c(Cl)c3)ccn2c1 [Compound 7e, (6‐methoxyindolizin‐1‐yl)(3,4‐dichlorophenyl)methanone] | 14100 nM | 12400 nM | 11900 nM | 14100 nM | 12400 nM | 11900 nM | 53 ± 1.8% | > 50000 nM | 68 ± 3.4% | > 50000 nM | 70 ± 3.8% |  |  |  |  |  |  |  |  | 
2 | COc1ccc2c(C(=O)c3cc(OC)c(OC)c(OC)c3)c(C(C)(C)C)cn2c1 [Compound 8b, [2‐(Tert‐Butyl)‐6‐Methoxyindolizin‐1‐yl](3,4,5‐Trimethoxyphenyl)Methanone] |  |  |  |  |  |  | 62 ± 0.5% |  | 46 ± 6% |  | 84 ± 3.2% | 89.5% to 73.1 |  |  |  |  |  |  |  | 
3 | COc1ccc2c(C(=O)c3cc(OC)c(OC)c(OC)c3)c(C(F)(F)F)cn2c1 [Compound 8e, [6‐methoxy‐2‐(trifluoromethyl)indolizin‐1‐yl](3,4,5‐trimethoxyphenyl)methanone] | 105 ± 49 nM | 75 ± 21 nM | 117 ± 32 nM | 105 ± 49 nM | 75 ± 21 nM | 117 ± 32 nM | 62 ± 2.3% | > 50000 nM | 53 ± 2.2% | > 50000 nM | 76 ± 1.3% | 89.5% to 73.1 | significant accumulation of cells in the G2/M phase | decrease | markedly decreased | upregulated | four‐ to sixfold decrease | 47 to 117 nM | most potent | 9.3 µM
4 | CCCc1cn2cc(OC)ccc2c1C(=O)c1cc(OC)c(OC)c(OC)c1 [Compound 8h, (6‐methoxy‐2‐propylindolizin‐1‐yl)(3,4,5‐trimethoxyphenyl)methanone] | 90 ± 56 nM | 47 ± 18 nM | 75 ± 35 nM | 90 ± 56 nM | 47 ± 18 nM | 75 ± 35 nM | 71 ± 2.8% | > 50000 nM | 70 ± 3.3% | > 50000 nM | 90 ± 1.8% | 89.5% to 73.1 | significant accumulation of cells in the G2/M phase | decrease | markedly decreased | upregulated | four‐ to sixfold decrease | 47 to 117 nM | most potent | 10.9 µM

Now from value to compound, other results behind:

Row | IC50 [1, 10] | IC50 [1, 11] | IC50 [3, 12] | IC50 [3, 13] | IC50 [5, 14] | IC50 [5, 15] | SMILES | inhibition at 50 µM ([1]; 72 h, mean ± SD, n = 3) | IC50 [2] | inhibition at 50 µM ([3]; 72 h, mean ± SD, n = 3) | IC50 [4] | inhibition at 50 µM ([5]; 72 h, mean ± SD, n = 3) | level of inhibition in the 50 µM screening [6] | cell‐cycle distribution [7] | Bcl‐2 levels [8] | cyclin D1 levels [8] | p21 expression [8] | decrease in IC50 relative to 7f (HIT) [3] | IC50 [6] | effect on tubulin polymerization curves (RFU) [9] | IC50 [9]
5 | 370 ± 28 nM | 325 ± 92 nM | 410 ± 212 nM | 370 ± 28 nM | 325 ± 92 nM | 410 ± 212 nM | COc1ccc2c(C(=O)c3cc(OC)c(OC)c(OC)c3)c(C)cn2c1 [Compound 8a, (6‐methoxy‐2‐methylindolizin‐1‐yl)(3,4,5‐trimethoxyphenyl)methanone] | 52 ± 5% | > 50000 nM | 41 ± 4.3% | > 50000 nM | 64 ± 2.7% |  |  |  |  |  |  |  |  | 
6 | 465 ± 35 nM | 300 ± 85 nM | 465 ± 35 nM |  | 300 ± 85 nM | 465 ± 35 nM | COc1ccc2c(C(=O)c3cc(OC)c(OC)c(OC)c3)c(-c3ccc(C)cc3)cn2c1 [Compound 8j, [6‐methoxy‐2‐(p ‐tolyl)indolizin‐1‐yl](3,4,5‐trimethoxyphenyl)methanone] | 61 ± 2% | > 50000 nM | 71 ± 2% | > 50000 nM | 73 ± 4% | 89.5% to 73.1 |  |  |  |  |  |  |  | 
7 | 800 ± 127 nM | 690 ± 156 nM | 880 ± 14 nM | 800 ± 127 nM | 690 ± 156 nM | 880 ± 14 nM | COc1ccc(-c2cn3cc(OC)ccc3c2C(=O)c2cc(OC)c(OC)c(OC)c2)cc1 [Compound 8k, [6‐methoxy‐2‐(4‐methoxyphenyl)indolizin‐1‐yl](3,4,5‐trimethoxyphenyl)methanone] | 64 ± 1.5% | > 50000 nM | 74 ± 2% | > 50000 nM | 73 ± 4.5% | 89.5% to 73.1 |  |  |  |  |  |  |  | 

Source: paper PMC12673918, “Design, Synthesis, and Selective Antiproliferative Activity of Indolizine Derivatives as Microtubule Destabilizers” (Archiv Der Pharmazie, 2025)
